Drawing on article PMC9502870, this text covers ring closure, isolated yield for 7 compounds.

The series is described as follows: Intramolecular Nicholas reaction: C-O or C-N bond formation between OH/NHR nucleophile and Co2(CO)6-stabilised propargyl cation (from propargylic OMe), BF3·Et2O 1.3-8 equiv, 0 °C to rt. As to conditions: the molecule shown is the open-chain precursor, 10-membered ring, DCM, 1.0 mM, 25.0 °C.

Structures are written as SMILES.

Take `COCC#Cc1sc2ccccc2c1C#CCC(O)CC(=O)OC` (stereo not shown) [4 -> 5]: under “1.0 h”, the ring closure, isolated yield is 51%.

With `COCC#Cc1sc2ccccc2c1C#CCCNS(=O)(=O)c1ccccc1[N+](=O)[O-]` [12a -> 13a], the ring closure, isolated yield (1.0 h) amounted to 46%.

With `COCC#Cc1sc2ccccc2c1C#CCCNS(=O)(=O)c1ccc(N)cc1` [12b (free NH2, no cyclization)], the ring closure, isolated yield worked out at 0%.

Regarding `C#CCCCC(=O)Nc1ccc(S(=O)(=O)NCCC#Cc2c(C#CCOC)sc3ccccc23)cc1` [12c -> 13b], the ring closure, isolated yield (1.0 h) worked out at 63%.

For the compound `COCC#Cc1sc2ccccc2c1C#CCCNCc1ccccc1` [17a -> 18 (BF3·Et2O)], the ring closure, isolated yield (20.0 h) came to 4%.

With `COCC#Cc1sc2ccccc2c1C#CCCNC(=O)c1ccccc1` [17b (no macrocycle; pyrroline 19 formed)], the ring closure, isolated yield (2.0 h) is 0%.

Regarding `COCC#Cc1sc2ccccc2c1C#CCCNS(=O)(=O)c1ccc(C)cc1` [NHTs Co-complex -> 13c (ref 42)], the ring closure, isolated yield was 76%.
